Values quoted from earlier work as cited in patent publication US12685733B2, “Indole molecules and use thereof in the inhibition of DNA polymerases” (BioVentures, LLC, priority 2019, dated 2026).

Target: T1, recombinant hpol κ (Homo sapiens, UniProt Q9UBT6)
T1 sequence (Q9UBT6 1-870): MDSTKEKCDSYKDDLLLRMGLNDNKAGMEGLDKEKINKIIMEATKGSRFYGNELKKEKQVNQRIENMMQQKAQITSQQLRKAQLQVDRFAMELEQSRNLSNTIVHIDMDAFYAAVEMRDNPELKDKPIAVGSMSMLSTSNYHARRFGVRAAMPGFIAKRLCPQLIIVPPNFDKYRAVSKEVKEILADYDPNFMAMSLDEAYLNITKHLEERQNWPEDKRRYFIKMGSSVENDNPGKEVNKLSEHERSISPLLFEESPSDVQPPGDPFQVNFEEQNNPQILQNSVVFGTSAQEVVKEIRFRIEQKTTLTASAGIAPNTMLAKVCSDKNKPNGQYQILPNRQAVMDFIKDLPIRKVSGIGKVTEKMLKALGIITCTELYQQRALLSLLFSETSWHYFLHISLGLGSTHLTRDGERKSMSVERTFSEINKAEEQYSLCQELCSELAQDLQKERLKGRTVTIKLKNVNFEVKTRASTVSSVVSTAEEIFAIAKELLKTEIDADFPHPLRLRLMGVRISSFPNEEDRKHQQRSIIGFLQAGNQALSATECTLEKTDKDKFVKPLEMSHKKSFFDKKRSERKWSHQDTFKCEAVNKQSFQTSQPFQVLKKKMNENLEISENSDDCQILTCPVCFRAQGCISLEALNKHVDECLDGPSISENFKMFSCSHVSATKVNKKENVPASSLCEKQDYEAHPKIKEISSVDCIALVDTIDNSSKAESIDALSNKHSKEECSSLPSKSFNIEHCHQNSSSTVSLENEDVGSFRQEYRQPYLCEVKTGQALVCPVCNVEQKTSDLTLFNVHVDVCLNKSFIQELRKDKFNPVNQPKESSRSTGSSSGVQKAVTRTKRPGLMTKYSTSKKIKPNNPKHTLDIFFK
Settings: earlier screen; cited from earlier work

CCOc1nc2cccc(C(=O)OC(C)OC(=O)OC3CCCCC3)c2n1Cc1ccc(-c2ccccc2-c2nn[nH]n2)cc1 (stereo not shown) [candesartan, candesartan cilexetil]
IC50 for inhibition of recombinant hpol κ: tens of micromolar
